Assay results published in ChEMBL document CHEMBL3885881, “DrugMatrix”.

Experiments:
Rattus norvegicus [1] = species: Rattus norvegicus; assay type: toxicity, organism-based, Sprague-Dawley; conditions: in vivo, po, 60 mg/kg, 24 h, route oral GAVAGE, dose level High, time 1 day, vehicle 100 % WATER
Description: DrugMatrix - Regimen: Single

Rattus norvegicus [2] = species: Rattus norvegicus; test: DrugMatrix - Regimen: Daily Repeat; assay type: toxicity, organism-based, Sprague-Dawley; set-up: regimen Daily Repeat, gender Male, age 6-8 weeks; conditions: in vivo, po, 60 mg/kg, 72 h, route oral GAVAGE, dose level High, time 3 day, vehicle 100 % WATER

Compound: Nc1ccc(O)c(N)c1 [2,4-DIAMINOPHENOL]
- ABSOLUTE EOSINOPHIL (Rattus norvegicus [1]; tissue Blood): 80.67 CELLS/uL
- ABSOLUTE LYMPHOCYTE (Rattus norvegicus [1]; tissue Blood): 10585.67 CELLS/uL
- ABSOLUTE MONOCYTE (Rattus norvegicus [1]; tissue Blood): 630.67 CELLS/uL
- ABSOLUTE SEGMENTED NEUTROPHIL (Rattus norvegicus [1]; tissue Blood): 1169.67 CELLS/uL
- BASOPHIL (Rattus norvegicus [1]; tissue Blood): 0%
- EOSINOPHIL (Rattus norvegicus [1]; tissue Blood): 0.67%
- ERYTHROCYTE COUNT (Rattus norvegicus [1]; tissue Blood): 4.98 x10E6/uL
- HEMATOCRIT (Rattus norvegicus [1]; tissue Blood): 31.37%
- HEMOGLOBIN (Rattus norvegicus [1]; tissue Blood): 11.7 G/DL
- LEUKOCYTE COUNT (Rattus norvegicus [1]; tissue Blood): 12.47 x10E3/uL
- LYMPHOCYTE (Rattus norvegicus [1]; tissue Blood): 85%
- MEAN CORPUSCULAR HEMOGLOBIN (Rattus norvegicus [1]; tissue Blood): 23.63 pg
- MEAN CORPUSCULAR HEMOGLOBIN CONCENTRATION (Rattus norvegicus [1]; tissue Blood): 37.37 G/DL
- MEAN CORPUSCULAR VOLUME (Rattus norvegicus [1]; tissue Blood): 63.17 fL
- MONOCYTE (Rattus norvegicus [1]; tissue Blood): 5%
- NEUTROPHIL (Rattus norvegicus [1]; tissue Blood): 9.33%
- NUCLEATED RED BLOOD CELLS (Rattus norvegicus [1]; tissue Blood): 0 /100WBC
- PLATELET COUNT (Rattus norvegicus [1]; tissue Blood): 963 x10E3/uL
- ALANINE AMINOTRANSFERASE (Rattus norvegicus [1]; tissue Plasma): 60.67 u/L
- ALBUMIN (Rattus norvegicus [1]; tissue Plasma): 4.43 G/DL
- ALKALINE PHOSPHATASE (Rattus norvegicus [1]; tissue Plasma): 366.33 u/L
- ASPARTATE AMINOTRANSFERASE (Rattus norvegicus [1]; tissue Plasma): 78.33 u/L
- BLOOD UREA NITROGEN (Rattus norvegicus [1]; tissue Plasma): 12 mg/dL
- CARBON DIOXIDE (Rattus norvegicus [1]; tissue Plasma): 27 mmol/L
- CHLORIDE (Rattus norvegicus [1]; tissue Plasma): 103.33 MEQ/L
- CHOLESTEROL (Rattus norvegicus [1]; tissue Plasma): 77.33 mg/dL
- CREATININE (Rattus norvegicus [1]; tissue Plasma): 0.13 mg/dL
- GLUCOSE (Rattus norvegicus [1]; tissue Plasma): 149 mg/dL
- LACTATE DEHYDROGENASE (Rattus norvegicus [1]; tissue Plasma): 159 u/L
- LIPASE (Rattus norvegicus [1]; tissue Plasma): 8 u/L
- PHOSPHORUS (Rattus norvegicus [1]; tissue Plasma): 12.77 mg/dL
- POTASSIUM (Rattus norvegicus [1]; tissue Plasma): 6.85 MEQ/L
- SODIUM (Rattus norvegicus [1]; tissue Plasma): 145.33 MEQ/L
- TOTAL BILIRUBIN (Rattus norvegicus [1]; tissue Plasma): 0.1 mg/dL
- TOTAL PROTEIN (Rattus norvegicus [1]; tissue Plasma): 6 G/DL
- URIC ACID (Rattus norvegicus [1]; tissue Plasma): 1.37 mg/dL
- ABSOLUTE BASOPHIL (Rattus norvegicus [2]; tissue Blood): 0 CELLS/uL
- ABSOLUTE EOSINOPHIL (Rattus norvegicus [2]; tissue Blood): 193.67 CELLS/uL
- ABSOLUTE LYMPHOCYTE (Rattus norvegicus [2]; tissue Blood): 11960 CELLS/uL
- ABSOLUTE MONOCYTE (Rattus norvegicus [2]; tissue Blood): 874.33 CELLS/uL
- ABSOLUTE SEGMENTED NEUTROPHIL (Rattus norvegicus [2]; tissue Blood): 1505.33 CELLS/uL
- BASOPHIL (Rattus norvegicus [2]; tissue Blood): 0%
- EOSINOPHIL (Rattus norvegicus [2]; tissue Blood): 1.33%
- ERYTHROCYTE COUNT (Rattus norvegicus [2]; tissue Blood): 5.59 x10E6/uL
- HEMATOCRIT (Rattus norvegicus [2]; tissue Blood): 34.17%
- HEMOGLOBIN (Rattus norvegicus [2]; tissue Blood): 12.63 G/DL
- LEUKOCYTE COUNT (Rattus norvegicus [2]; tissue Blood): 14.53 x10E3/uL
- LYMPHOCYTE (Rattus norvegicus [2]; tissue Blood): 82.33%
- MEAN CORPUSCULAR HEMOGLOBIN (Rattus norvegicus [2]; tissue Blood): 22.6 pg
- MEAN CORPUSCULAR HEMOGLOBIN CONCENTRATION (Rattus norvegicus [2]; tissue Blood): 36.97 G/DL
- MEAN CORPUSCULAR VOLUME (Rattus norvegicus [2]; tissue Blood): 61.1 fL
- MONOCYTE (Rattus norvegicus [2]; tissue Blood): 6%
- NEUTROPHIL (Rattus norvegicus [2]; tissue Blood): 10.33%
- NUCLEATED RED BLOOD CELLS (Rattus norvegicus [2]; tissue Blood): 0 /100WBC
- PLATELET COUNT (Rattus norvegicus [2]; tissue Blood): 1050 x10E3/uL
- ALANINE AMINOTRANSFERASE (Rattus norvegicus [2]; tissue Plasma): 72 u/L
- ALBUMIN (Rattus norvegicus [2]; tissue Plasma): 4.43 G/DL
- ALKALINE PHOSPHATASE (Rattus norvegicus [2]; tissue Plasma): 400.67 u/L
- ASPARTATE AMINOTRANSFERASE (Rattus norvegicus [2]; tissue Plasma): 94 u/L
- BLOOD UREA NITROGEN (Rattus norvegicus [2]; tissue Plasma): 17.67 mg/dL
- CARBON DIOXIDE (Rattus norvegicus [2]; tissue Plasma): 23.33 mmol/L
- CHLORIDE (Rattus norvegicus [2]; tissue Plasma): 102.67 MEQ/L
- CHOLESTEROL (Rattus norvegicus [2]; tissue Plasma): 68 mg/dL
- CREATININE (Rattus norvegicus [2]; tissue Plasma): 0.19 mg/dL
- GLUCOSE (Rattus norvegicus [2]; tissue Plasma): 165 mg/dL
- LACTATE DEHYDROGENASE (Rattus norvegicus [2]; tissue Plasma): 314.67 u/L
- LIPASE (Rattus norvegicus [2]; tissue Plasma): 8.33 u/L
- PHOSPHORUS (Rattus norvegicus [2]; tissue Plasma): 12.5 mg/dL
- POTASSIUM (Rattus norvegicus [2]; tissue Plasma): 6.48 MEQ/L
- SODIUM (Rattus norvegicus [2]; tissue Plasma): 144.2 MEQ/L
- TOTAL BILIRUBIN (Rattus norvegicus [2]; tissue Plasma): 0.23 mg/dL
- TOTAL PROTEIN (Rattus norvegicus [2]; tissue Plasma): 6 G/DL
- URIC ACID (Rattus norvegicus [2]; tissue Plasma): 1.63 mg/dL
